Assay results reported in patent US20250195511A1, “INDAZOLE DERIVATIVES USEFUL AS INHIBITORS OF NOD-LIKE RECEPTOR PROTEIN 3” (Merck Sharp & Dohme LLC, priority 2023, published 2025).

Tested on: NLRP3 inflammasome
Test: NLRP3 inflammasome activation: ASC-SPECK formation in gramicidin-stimulated THP-1 cells
Type: cell-based
Conditions: PMA-treated human monocytic THP-1 cells, compound 1 h before 12.5 μg/ml gramicidin, 3-hour treatment
From the text: Activation of the canonical NLRP3 inflammasome requires two steps, priming and activation. A priming signal such as a pathogen activated molecular patterns (PAMPs) or danger-activated molecular patterns (DAMPs) are recognized by Toll-like receptors leads to nuclear factor kappa B (NF-KB)-mediated signaling. […] The second step is activation which induces oligomerization of NLRP3 and subsequent assembly of NLRP3, apoptosis-associated speck-like protein containing a CARD (ASC), and procaspase-1 into an inflammasome complex. This triggers the transformation of procaspase-1 to caspase-1, and the production and secretion of mature IL-1β and IL-18 (Kim et al., J. Inflamm. 2015, 12, 41; Ozaki et al., J. Inflamm. Res. 2015, 8, 15-27; Rabeony et al., Eur. J. Immunol. 2015, 45, 2847). During inflammasome complex assembly, the oligomerization of NLRP3 triggers the nucleation of ASC and an event commonly referred to as “ASC SPECK” formation, as it is identified in the cell as a discrete puncta within the cell after staining and visualization of ASC using common immunocytochemical methods.
The ability of compounds to inhibit NLRP3 inflammasome activation was determined in vitro by monitoring formation of the ASC-SPECK in human monocytic THP-1 cells after stimulation. THP-1 cells (ATCC catalog #TIB-202) were maintained in complete growth media containing Roswell Park Memorial Institute RPMI (ATCC catalog #30-2001), 10% heat inactivated fetal bovine serum, 1× penicillin/streptomycin and 0.05 mM 2-mercaptoethanol. At the start of the assay, undifferentiated THP-1 cells were plated at a density of 20,000 cells per well in a 384-well plate (Poly-D-lysine coated Cell Carrier Ultra microplate, Perkin Elmer catalog #6057500) in complete growth media supplemented with 10 ng/ml phorbol 12-myristate 13-acetate (PMA; Sigma catalog #P8139), and then incubated overnight. The next day, media was replaced with assay media (RPMI (Gibco catalog #11875-093), 0.01% bovine serum albumin (BSA)). Compounds were serially diluted in DMSO and then added to wells one hour prior to the addition of 12.5 μg/ml Gramicidin (Enzo Lifescience, catalog #ALX-350-233-M005). All incubations were carried out at 37° C. (5% CO2/95% air). Following a 3-hour treatment with gramicidin, cells are fixed with 4% paraformaldehyde and stored at 4° C. until immunofluorescence staining.
Immunofluorescence staining: Anti-ASC antibody (MBL catalog #D086-3) was desalted and labeled with Alexa 488 antibody labeling kit (Thermo catalog #A20181) prior to use as described below. After fixation, the following steps were carried out at rt. Cells were first permeabilized with 0.3% polyethylene glycol tert-octylphenyl ether (Triton X-100) in phosphate-buffered saline (PBS) for 15 minutes and then incubated in blocking buffer containing 5% goat serum, 0.3% polyethylene glycol sorbitan monolaurate (Tween-20) and 0.03% sodium azide in PBS for 1 hour. Cells were stained with a mixture of ASC-Alexa 488 antibody (diluted 1:200 in blocking buffer) and nuclear stain DRAQ5 (1:5000 in blocking buffer, Thermo catalog #62251) in blocking buffer for 1 hour. Following a wash with 0.3% polyethylene glycol sorbitan monolaurate (Tween-20) in PBS, plates were imaged with an Opera Phenix High Content Screening System. The number of DRAQ5 positive cells containing ASC SPECKS were quantified in each well.
Data analysis: EC50 values were calculated by standard curve-fitting analysis using an internally developed program in TIBCO Spotfire software.

[1] = Homo sapiens, THP-1, inhibition of ASC SPECK formation
[2] = inhibition of ASC SPECK formation

EC50 [1] [µM] | EC50 [2] [µM] | Structure (SMILES)
0.026 | – | Cc1cc(C(F)(F)F)cc(O)c1-c1cnc2cn(C34CC(CO)(C3)C4)nc2n1 [Example 43, 2-[2-[3-(hydroxymethyl)-1-bicyclo[1.1.1]pentanyl]pyrazolo[3,4-b]pyrazin-6-yl]-3-methyl-5-(trifluoromethyl)phenol]
0.038 | – | Cc1cc(C(F)(F)F)cc(O)c1-c1cnc2cn(C34CC(C#N)(C3)C4)nc2n1 [Example 8, 3-(6-(2-hydroxy-6-methyl-4-(trifluoromethyl)phenyl)-2H-pyrazolo[3,4-b]pyrazin-2-yl)bicyclo[1.1.1]pentane-1-carbonitrile]
0.031 | – | Cc1cc(C(F)(F)F)cc(O)c1-c1cnc2cn([C@H]3C[C@H](Cl)C3)nc2n1 [Example 49, 2-(2-((1R,3R)-3-chlorocyclobutyl)-2H-pyrazolo[3,4-b]pyrazin-6-yl)-3-methyl-5-(trifluoromethyl)phenol]
0.189 | – | Cc1cc(C(F)(F)F)cc(O)c1-c1cnc2cn(C3CCP(C)(=O)CC3)nc2n1 (single isomer, unassigned) [Example 82, (1R,4R or 1S,4S)-4-(6-(2-hydroxy-6-methyl-4-(trifluoromethyl)phenyl)-2H-pyrazolo[3,4-b]pyrazin-2-yl)-1-methylphosphinane 1-oxide]
0.071 | – | Cc1cc(C(F)(F)F)cc(O)c1-c1cnc2cn([C@@H]3COC[C@H]3O)nc2n1 [Example 33, (3S,4R)-4-[6-[2-hydroxy-6-methyl-4-(trifluoromethyl)phenyl]pyrazolo[3,4-b]pyrazin-2-yl]tetrahydrofuran-3-ol]
– | 0.015 | Cc1cc(C(F)(F)F)cc(O)c1-c1cnc2cn(C3CCc4nnn(C)c4C3)nc2n1 (single isomer, unassigned) [Example 69, (S or R)-3-methyl-2-(2-(1-methyl-4,5,6,7-tetrahydro-1H-benzo[d][1,2,3]triazol-6-yl)-2H-pyrazolo[3,4-b]pyrazin-6-yl)-5-(trifluoromethyl)phenol]
0.027 | – | Cc1cc(Cl)cc(O)c1-c1cnc2cn([C@H]3C[C@H](F)C3)nc2n1 [Example 55, 5-chloro-2-(2-((1R,3R)-3-fluorocyclobutyl)-2H-pyrazolo[3,4-b]pyrazin-6-yl)-3-methylphenol]
– | 0.169 | Cc1cc(C(F)(F)F)cc(O)c1-c1cnc2cn(C3CCOCC34CC4)nc2n1 (single isomer, unassigned) [Example 100, (S or R)-2-(2-(5-oxaspiro[2.5]octan-8-yl)-2H-pyrazolo[3,4-b]pyrazin-6-yl)-3-methyl-5-(trifluoromethyl)phenol]
– | 0.292 | Cc1cc(C(F)(F)F)cc(O)c1-c1cnc2cn([C@H]3CCO[C@H](C)C3)nc2n1 (single isomer, unassigned) [Example 89, 3-methyl-2-(2-((2R,4S or 2S,4R)-2-methyltetrahydro-2H-pyran-4-yl)-2H-pyrazolo[3,4-b]pyrazin-6-yl)-5-(trifluoromethyl)phenol]
– | 0.098 | Cc1cc(C(F)(F)F)cc(O)c1-c1cnc2cn(C3C4CS(=O)(=O)CC43)nc2n1 (single isomer, unassigned) [Example 54, (1R,5S,6R or 1R,5S,6S)-6-(6-(2-hydroxy-6-methyl-4-(trifluoromethyl)phenyl)-2H-pyrazolo[3,4-b]pyrazin-2-yl)-3-thiabicyclo[3.1.0]hexane 3,3-dioxide]
0.287 | – | CCOCOc1cc(C(F)(F)F)cc(C)c1-c1cnc2c([C@@H](C)O)n(C[C@@H]3CC(=O)N(C4CC4)C3)nc2n1 (single isomer, unassigned) [Example 115, (R or S)-1-cyclopropyl-4-((6-(2-(ethoxymethoxy)-6-methyl-4-(trifluoromethyl)phenyl)-3-((R or S)-1-hydroxyethyl)-2H-pyrazolo[3,4-b]pyrazin-2-yl)methyl)pyrrolidin-2-one]
0.05 | – | Cc1cc(C(F)(F)F)cc(O)c1-c1cnc2cn(C34CC(C3)S(=O)(=O)C4)nc2n1 [Example 2, 4-(6-(2-hydroxy-6-methyl-4-(trifluoromethyl)phenyl)-2H-pyrazolo[3,4-b]pyrazin-2-yl)-2-thiabicyclo[2.1.1]hexane 2,2-dioxide]
0.028 | – | CCOCOc1cc(C(F)(F)F)cc(C)c1-c1cnc2c([C@H](C)O)n(C[C@@H]3CC(=O)N(C4CC4)C3)nc2n1 (single isomer, unassigned) [Example 116, (R or S)-1-cyclopropyl-4-((6-(2-(ethoxymethoxy)-6-methyl-4-(trifluoromethyl)phenyl)-3-((S or R)-1-hydroxyethyl)-2H-pyrazolo[3,4-b]pyrazin-2-yl)methyl)pyrrolidin-2-one]
0.141 | – | COC12CC(n3cc4ncc(-c5c(C)cc(C(F)(F)F)cc5O)nc4n3)(C1)C2 [Example 38, 2-[2-(3-methoxy-1-bicyclo[1.1.1]pentanyl)pyrazolo[3,4-b]pyrazin-6-yl]-3-methyl-5-(trifluoromethyl)phenol]
0.071 | – | Cc1cc(C(F)(F)F)cc(O)c1-c1cnc2cn(C3CCOCC3)nc2n1 [Example 1, 3-methyl-2-(2-(tetrahydro-2H-pyran-4-yl)-2H-pyrazolo[3,4-b]pyrazin-6-yl)-5-(trifluoromethyl)phenol]
– | 0.029 | Cc1cc(C(F)(F)F)cc(O)c1-c1cnc2c(C(C)O)n(C3CCC(=O)N(C(C)C)C3)nc2n1 (single isomer, unassigned) [Example 117, (S or R)-5-(6-(2-hydroxy-6-methyl-4-(trifluoromethyl)phenyl)-3-((S or R)-1-hydroxyethyl)-2H-pyrazolo[3,4-b]pyrazin-2-yl)-1-isopropylpiperidin-2-one]
0.411 | – | Cc1cc(C(F)(F)F)cc(O)c1-c1cnc2nn([C@H]3C[C@H](F)C3)nc2n1 [Example 121, 2-(2-((1R,3R)-3-fluorocyclobutyl)-2H-[1,2,3]triazolo[4,5-b]pyrazin-5-yl)-3-methyl-5-(trifluoromethyl)phenol]
0.279 | – | COc1ccc(CN2CC(n3nc4nc(-c5c(C)cc(C(F)(F)F)cc5O)cnc4c3C)CCC2=O)cc1 (racemic) [Example 107, (R and S)-5-(6-(2-hydroxy-6-methyl-4-(trifluoromethyl)phenyl)-3-methyl-2H-pyrazolo[3,4-b]pyrazin-2-yl)-1-(4-methoxybenzyl)piperidin-2-one]
0.564 | – | Cc1cc(C(F)(F)F)cc(O)c1-c1cnc2cn([C@H]3CCOC[C@@H]3C)nc2n1 (single isomer, unassigned) [Example 87, 3-methyl-2-(2-((3R,4S or 3S,4R)-3-methyltetrahydro-2H-pyran-4-yl)-2H-pyrazolo[3,4-b]pyrazin-6-yl)-5-(trifluoromethyl)phenol]
0.186 | – | Cc1cc(C(F)(F)F)cc(O)c1-c1cnc2cn([C@@H]3CC[C@H](C#N)C3)nc2n1 (racemic) [Example 20, (1S,3R and 1R,3S)-3-(6-(2-hydroxy-6-methyl-4-(trifluoromethyl)phenyl)-2H-pyrazolo[3,4-b]pyrazin-2-yl)cyclopentane-1-carbonitrile]
– | 0.332 | Cc1cc(C(F)(F)F)cc(O)c1-c1cnc2cn([C@H]3CCO[C@@H](C)C3)nc2n1 (single isomer, unassigned) [Example 93, 3-methyl-2-(2-((2S,4S or 2R,4R)-2-methyltetrahydro-2H-pyran-4-yl)-2H-pyrazolo[3,4-b]pyrazin-6-yl)-5-(trifluoromethyl)phenol]
0.055 | – | Cc1cc(C(F)(F)F)cc(O)c1-c1cnc2cn(C34CCC(O)(CC3)C4)nc2n1 [Example 28, 4-[6-[2-hydroxy-6-methyl-4-(trifluoromethyl)phenyl]pyrazolo[3,4-b]pyrazin-2-yl]norboman-1-ol]
